For `C[C@H](Nc1ccc([N+](=O)[O-])c2nonc12)C(=O)N[C@@H]1CC[C@]2(C)C3CC[C@@]4(C)C(CCC4[C@H](C)CCC(=O)OCCOCCOCCN=[N+]=[N-])C3CC[C@@H]2C1` (some centres unmarked), the melting point lay in the range of 69 to 70 °C.
For `C[C@H](CCC(=O)O)C1CCC2C3CC[C@@H]4C[C@H](NC5=C(Cl)C(=O)c6ccccc6C5=O)CC[C@]4(C)C3CC[C@@]21C` (some centres unmarked), the melting point is 120 to 122 °C.
`C[C@H](CCC(=O)O)C1CCC2C3CC[C@@H]4C[C@H](NC(=O)[C@@H](N)CC(=O)O)CC[C@]4(C)C3CC[C@@]21C` (some centres unmarked) yielded a melting point of 158 to 160 °C.
Then `COc1cc2nc(Cl)nc(N[C@@H]3CC[C@]4(C)C5CC[C@@]6(C)C(CCC6[C@H](C)CCC(=O)O)C5CC[C@@H]4C3)c2cc1OC` (some centres unmarked), with 178 to 180 °C; and `C[C@H](CCC(=O)OCCOCCOCCN=[N+]=[N-])C1CCC2C3CC[C@@H]4C[C@H](NC(=O)[C@H](Cc5c[nH]c6ccccc56)Nc5ccc([N+](=O)[O-])c6nonc56)CC[C@]4(C)C3CC[C@@]21C` (some centres unmarked), with 86 to 87 °C; and `C[C@H](CCC(=O)OCCOCCOCCN=[N+]=[N-])C1CCC2C3CC[C@@H]4C[C@H](NC(=O)[C@H](CSC(C)(C)C)Nc5ccc([N+](=O)[O-])c6nonc56)CC[C@]4(C)C3CC[C@@]21C` (some centres unmarked), with 64 to 65 °C.
Then `C[C@H](CCC(=O)OCCOCCOCCN=[N+]=[N-])C1CCC2C3CC[C@@H]4C[C@H](NC(=O)[C@H](CCCNC(=N)N)Nc5ccc([N+](=O)[O-])c6nonc56)CC[C@]4(C)C3CC[C@@]21C` (some centres unmarked), with 78 to 79 °C; and `C[C@H](CCC(=O)OCCOCCOCCN=[N+]=[N-])C1CCC2C3CC[C@@H]4C[C@H](NC(=O)[C@H](CCC(=O)O)Nc5ccc([N+](=O)[O-])c6nonc56)CC[C@]4(C)C3CC[C@@]21C` (some centres unmarked), with 77 to 78 °C; and `C[C@H](CCC(=O)O)C1CCC2C3CC[C@@H]4C[C@H](NC(=O)[C@H](CC(=O)O)Nc5ccc([N+](=O)[O-])c6nonc56)CC[C@]4(C)C3CC[C@@]21C` (some centres unmarked), with 134 to 136 °C.
Then `C[C@H](CCC(=O)OCCOCCOCCN=[N+]=[N-])C1CCC2C3CC[C@@H]4C[C@H](NC(=O)[C@H](Cc5ccc(O)cc5)Nc5ccc([N+](=O)[O-])c6nonc56)CC[C@]4(C)C3CC[C@@]21C` (some centres unmarked), with 72 to 73 °C; and `C[C@H](CCC(=O)OCCOCCOCCN=[N+]=[N-])C1CCC2C3CC[C@@H]4C[C@H](NC(=O)[C@H](Cc5ccccc5)Nc5ccc([N+](=O)[O-])c6nonc56)CC[C@]4(C)C3CC[C@@]21C` (some centres unmarked), with 65 to 66 °C.
In the case of `C[C@H](CCC(=O)O)C1CCC2C3CC[C@@H]4C[C@H](NS(=O)(=O)c5c(Cl)ccc6nonc56)CC[C@]4(C)C3CC[C@@]21C` (some centres unmarked), the melting point lay within 128 to 130 °C.
Consider `C[C@H](CCC(=O)O)C1CCC2C3CC[C@@H]4C[C@H](NS(=O)(=O)c5cccc6cccnc56)CC[C@]4(C)C3CC[C@@]21C` (some centres unmarked), for which the melting point was in the range of 138 to 140 °C.
`C[C@H](CCC(=O)OCCOCCOCCN=[N+]=[N-])C1CCC2C3CC[C@@H]4C[C@H](NC(=O)C5CCCN5c5ccc([N+](=O)[O-])c6nonc56)CC[C@]4(C)C3CC[C@@]21C` (some centres unmarked) displayed a melting point of 62 to 64 °C.
As for `C[C@H](CCC(=O)O)C1CCC2C3CC[C@@H]4C[C@H](Nc5ccc6ccccc6n5)CC[C@]4(C)C3CC[C@@]21C` (some centres unmarked), the melting point lay in the range of 140 to 142 °C.
Then `C[C@H](CCC(=O)O)C1CCC2C3CC[C@@H]4C[C@H](NS(=O)(=O)c5cc6ccccc6s5)CC[C@]4(C)C3CC[C@@]21C` (some centres unmarked), with 132 to 134 °C; and `C[C@H](CCC(=O)OCCOCCOCCN=[N+]=[N-])C1CCC2C3CC[C@@H]4C[C@H](NC(=O)[C@H](CCCCN)Nc5ccc([N+](=O)[O-])c6nonc56)CC[C@]4(C)C3CC[C@@]21C` (some centres unmarked), with 84 to 85 °C.

Broadly, the melting point is the temperature, or range, at which the solid turns liquid.

The values above are taken from patent publication US10889611B2, “Sialyltransferase inhibitors and uses thereof” (Academia Sinica, priority 2015, dated 2021).
